Reference: PMC7249156, “Tricyclic Derivative of Acyclovir and Its Esters in Relation to the Esters of Acyclovir Enzymatic Stability: Enzymatic Stability Study” (Molecules, 2020)
Like-named read-outs stand apart in the source and are kept apart here.

Key:
[1] = design: method as in PMID 18638532; conditions: valaciclovir; cited from earlier work
[2] = Stability test (hydrolysis) in human plasma (80%, 37 °C); type: in vitro ADME
Protocol: The condition for determining the values of the observed rate constants is to observe changes in the concentration of the tested compound over time ensuring degradation of at least 80% of the compound. In plasma, hydrolysis reactions were carried out until a minimum 50% loss of the tested compound was obtained except for the extremely stable 6-(4-MeOPh)-TACV under these conditions. In this case, the observed loss was 22% during the 25-h reaction. Further carrying out of this reaction in vitro in a temperature of 37 °C was not recommended (Figure 2).
Stability tests were performed in human plasma (80%, v/v) thermostated in a water bath at 37 °C. In total, 2.50 mg of each of the analyzed compounds were weighed and dissolved in 0.5 mL of DMSO (5.0 mg/mL). For plastic screw-on tubes containing 4.0 mL of plasma, 0.8 mL of PBS buffer were added, mixed, and thermostated in a water bath. Then, 0.2 mL of the tested compound solution in DMSO (5.0 mg/mL) were added to the incubated plasma. Samples were thermostated at 37 °C and at specified intervals. After mixing, 0.2 mL of the test sample were taken and transferred to 0.4 mL of the appropriate internal standard solution (Table 1). After mixing, the samples were centrifuged for […] (5 min, 13,000 rpm). The supernatant was transferred to the tubes and analyzed by the HPLC method in a suitable phase system (Table 1). The initial concentration of the tested compounds in the plasma was 200 μg/mL, while in the analyte solution (supernatant) it was 66.7 μg/mL.
(§1) The HPLC-MS/MS method was used for analysis of the solutions hydrolyzed in plasma (80% v/v, 37 °C, 24 h) and in plasma (80%, v/v) with porcine esterase at a concentration of 5.50 × 10^−9 M (37 °C, 2 h). The samples were prepared according to the procedure described in Section 3.4.1 and Section 3.4.2, and then diluted with water in a proportion of 1:100 (v/v).

[3] = system: esterase from porcine liver (PLE); assay: Stability test in plasma (80%, 37 °C) with porcine liver esterase; type: in vitro ADME; conditions: for kobs. ± Δkobs. / t0.5: plasma 80%
Description: For the correct interpretation of the distribution of the tested compounds under the influence of esterase, it is necessary to know the specificity of the enzymatic reactions (Scheme 1). The biotransformation occurring during enzymatic hydrolysis can be treated as a limited capacity process and described using the Michaelis–Menten equation:(2) V=−dc/dt=Vm·c/KM+c, where: c—substance concentration, V = −(dc/dt)—rate of change of substance concentration, Vm—maximum theoretical speed of the process, and KM—Michaelis constant (numerically equal to the concentration of the substance at which its elimination occurs at a rate equal to half of Vm).
In case the value of the Michaelis constant is much higher than the concentration of the substance (KM >> c), Equation (2) can be simplified to the form of:(3) V=−dc/dt=k2/KM·cE·c=Vm/KM·c=kobs.·c, where: cE—enzyme concentration.
After transformation:(4) kobs.=k2/KM·cE=Vm/KM.
A 1 U/μL aqueous pork esterase solution was prepared by diluting the suspension with 200 μL of water. Here, 168,000 Da was used as the molecular weight of the esterase and the molar concentration of the enzyme in a determined volume of the test sample of 5.0 mL was calculated (1 μL of the enzyme solution in 5.0 mL corresponded to a concentration of 5.50 × 10^−9 M).
For plastic screw-on tubes containing 4.0 mL of plasma, 0.8 mL of PBS buffer was added, mixed, and thermostated in a water bath (37 °C). A fixed volume of enzyme (0.5–11.0 μL) was added to the incubated plasma, mixed, and thermostated for 15 min. Then, 0.2 mL of the tested compound solution in DMSO (5.00 mg/mL) were added, mixed thoroughly, and proceeded as described in Section 3.4.1.
as §1

[4] = Stability of the analyte (supernatant) on storage; type: physicochemical; conditions: supernatant stored in freezer (−20 °C)
Protocol: For each substance, samples with two concentrations in the linearity range of the method were prepared. The supernatants of both solutions were analyzed by HPLC immediately after preparation and after storage at room temperature (25 °C), in a refrigerator (4 °C) and freezer compartment (−20 °C). The degree of decomposition of the tested compounds with respect to the initial value was determined.

Row | Compound | kobs. ± Δkobs. (pseudo-first-order rate constant of hydrolysis) ([2]; human plasma 80%) | t0.5 ([2]; human plasma 80%) [h] | kobs. ± Δkobs. ([3]; cE 2.0 U, 1.10·10^−8 M) | t0.5 ([3]; cE 2.0 U, 1.10·10^−8 M) [min] | kobs. ± Δkobs. ([3]; cE 3.0 U, 1.65·10^−8 M) | t0.5 ([3]; cE 3.0 U, 1.65·10^−8 M) [min] | kobs. ± Δkobs. ([3]; cE 4.0 U, 2.20·10^−8 M) | t0.5 ([3]; cE 4.0 U, 2.20·10^−8 M) [min] | kobs. ± Δkobs. ([3]; cE 5.0 U, 2.75·10^−8 M) | t0.5 ([3]; cE 5.0 U, 2.75·10^−8 M) [min] | time for which analyte solution was considered stable [4] [days] | kobs. ± Δkobs. ([3]; cE 6.0 U, 3.30·10^−8 M) | t0.5 ([3]; cE 6.0 U, 3.30·10^−8 M) [min] | other results
1 | CC(C)[C@H](N)C(=O)OCCOCn1cnc2c(=O)[nH]c(N)nc21 [valaciclovir] |  |  |  |  |  |  |  |  |  |  |  |  |  | t0.5 [1]: 226 h
2 | CCOC(=O)OCCOCn1cnc2c(=O)[nH]c(N)nc21 [Etc-ACV] | (7.99 ± 0.37)·10^−5 s^−1 | 2.41 | (6.48 ± 0.35)·10^−4 s^−1 | 17.8 | (8.60 ± 0.34)·10^−4 s^−1 | 13.4 | (1.20 ± 0.03)·10^−3 s^−1 | 9.6 | (1.54 ± 0.07)·10^−3 s^−1 | 7.5 | 27 |  |  | 
3 | CC(C)C(=O)OCCOCn1cnc2c(=O)[nH]c(N)nc21 [iBut-ACV] | (4.16 ± 0.16)·10^−4 s^−1 | 0.46 | (3.98 ± 0.13)·10^−3 s^−1 | 2.9 | (5.49 ± 0.20)·10^−3 s^−1 | 2.1 |  |  |  |  |  |  |  | kobs. ± Δkobs. ([3]; cE 0.5 U, 2.75·10^−9 M): (1.24 ± 0.12)·10^−3 s^−1; t0.5 ([3]; cE 0.5 U, 2.75·10^−9 M): 9.3 min; kobs. ± Δkobs. ([3]; cE 1.0 U, 5.50·10^−9 M): (2.24 ± 0.09)·10^−3 s^−1; t0.5 ([3]; cE 1.0 U, 5.50·10^−9 M): 5.2 min
4 | Nc1nc2c(ncn2COCCOC(=O)c2cccnc2)c(=O)[nH]1 [Nic-ACV] | (4.31 ± 0.23)·10^−4 s^−1 | 0.45 |  |  | (5.35 ± 0.23)·10^−4 s^−1 | 21.6 | (5.59 ± 0.50)·10^−4 s^−1 | 20.7 | (5.77 ± 0.32)·10^−4 s^−1 | 20.0 |  | (6.03 ± 0.22)·10^−4 s^−1 | 19.2 | 
5 | COc1ccc(-c2cn3c(=O)c4ncn(COCCO)c4nc3[nH]2)cc1 [6-(4-MeOPh)-TACV, 3,9-Dihydro-3-[(2-hydroxyethoxy)methyl]-6-(4-methoxyphenyl)-9-oxo-5H-imidazo[1,2-a]–purine] | (2.81 ± 0.36)·10^−6 s^−1 | 68.40 | (7.39 ± 0.49)·10^−6 s^−1 | 1560 | (8.21 ± 0.58)·10^−6 s^−1 | 1410 | (8.37 ± 0.24)·10^−6 s^−1 | 1360 |  |  | 27 | (9.58 ± 0.39)·10^−6 s^−1 | 1210 | observed loss of compound ([2]; human plasma 80%, 25-h reaction): 22%; degree of hydrolysis seen by HPLC-MS/MS ([2]; plasma 80%, 24 h): occurred to a small extent; degree of hydrolysis seen by HPLC-MS/MS ([3]; plasma 80% with porcine esterase 5.50·10^−9 M, 2 h): occurred to a small extent
6 | CC(C)(C)C(=O)OCCOCn1cnc2c(=O)[nH]c(N)nc21 [Piv-ACV] | (2.38 ± 0.17)·10^−5 s^−1 | 8.09 | (4.71 ± 0.10)·10^−4 s^−1 | 24.5 | (8.11 ± 0.15)·10^−4 s^−1 | 14.3 |  |  | (1.40 ± 0.04)·10^−3 s^−1 | 8.3 | 27 |  |  | kobs. ± Δkobs. ([3]; cE 1.0 U, 5.50·10^−9 M): (2.97 ± 0.09)·10^−4 s^−1; t0.5 ([3]; cE 1.0 U, 5.50·10^−9 M): 38.9 min
7 | CC(=O)OCCOCn1cnc2c(=O)[nH]c(N)nc21 [Ac-ACV] | (6.47 ± 0.49)·10^−5 s^−1 | 2.98 |  | 264 |  |  | (7.94 ± 0.23)·10^−5 s^−1 | 144 |  |  |  | (1.15 ± 0.02)·10^−4 s^−1 | 102 | kobs. ± Δkobs. ([3]; cE 8.0 U, 4.40·10^−8 M): (1.55 ± 0.04)·10^−4 s^−1; t0.5 ([3]; cE 8.0 U, 4.40·10^−8 M): 72 min
